In patent EP3763715A1, “HARRINGTONINES SALTS, IN PARTICULAR RETINOATES, THEIR PROCESS OF PREPARATION AND THEIR USES IN THE TREATMENT OF LEUKEMIAS, CANCERS, AUTOIMMUNE, SKIN, ALZHEIMER'S AND INFLAMMATORY BOWEL DISEASES AND VIRAL INFECTIONS, COMBINED WITH MYELOPOIESIS STIMULATING AGENTS” (Robin, Jean-Pierre, priority 2019, dated 2021):
pIC50: −log10 of the molar value.

Tests used:
Type in all cases: cell-based, human
K562 cell line = assay: Testing on K562 leukemia cell line (MTT cytotoxicity); settings: K562 cells, 72 h incubation, preliminary screening, read-out: K562 (CML) IC50
Procedure: (§1) Retinoates of harringtonines described in this invention were tested on K562 cell line which is derived from the pleural effusion of a person with chronic myelogenous leukemia (CML, bcr-abl positive) in terminal blast crises (Lozzio and Lozzio, Blood, 1975, p321). The cell line was purchased from ATCC (American Tissue Culture Collection) and grown in RPMI medium supplemented with 10% heat-inactivated fetal calf serum, 2 mmol/L glutamine, […] penicillin and […] streptomycin. All tested products were initially dissolved in 2N HCl (pH=2) (alkaloid base) or in aqueous solvent (salt) or in DMSO (retinoids), supplemented with ultrasound treatment during 1 h. Working concentrations were made by dilution in culture medium (pH 7). Cells in exponential growth phase were placed into 96-microwell plates in concentration 3x10^4/mL (total volume 200 µL/well) and incubated with drugs for 72 h at 37° C. in 5% CO2 humidified atmosphere. Following incubation, 28 µL of MTT 3-(4,5 dimethylthiazol-2-yl)-2,5 tetrazolium bromide] dye solution (Sigma, St. Louis, Mo.) was added to each well. During the following 6 h of incubation at 37° C., the purple formazan product was formed by conversion of the yellow MTT salt in the mitochondria of the viable cells. The resulting precipitate was dissolved in DMSO and the amount of converted MTT was quantified in an ELISA reader (MR 5000, Dynatech). Each product was tested in triplicate (3x8 wells). Every test contained at least one plate with HHT as control, added in the same concentration as the tested products.

HL-60 cell line = assay: Testing on HL-60 leukemia cell line (MTT cytotoxicity); settings: HL-60 cells, medium with 20% fetal bovine serum, preliminary screening, read-out: HL60 (APL) IC50
Procedure: as §1
Retinoates of harringtonines described in this invention were tested on HL-60 cell line, derived from acute promyelocytic leukemia (APL) cells. HL-60 is a promyelocytic cell line derived by S.J. Collins, et al. (Proc. Natl. Acad. Sci. USA 1978 p2458). Peripheral blood leukocytes were obtained by leukopheresis from a person with APL (Gallagher R, et al. Blood 1978, p713) The cell line was purchased from ATCC (American Tissue Culture Collection) and the base growth medium was also completed with fetal bovine serum but at a final concentration of 20%, otherwise the same method than the one of example 10 was used.
Preliminary screening using this tumor cell lines are gathered in table 1.

MDA-MB-468 = assay: Testing on breast cancer cell lines, sulforhodamine B (SRB) cell viability assay; settings: MDA-MB-468 breast cancer cells, preliminary screening, read-out: M DA-MB-468 (BC) IC50
Procedure: Operating Procedure were performed as described in the recent paper of Yakhni et al [Yakhni AM J CANCER RES 2019; 9(5) in press "Homoharringtonine, on approved anti-leukemia drug, suppresses triple negative breast cancer growth through a rapid reduction of anti-apoptotic protein abundance"]
The cell lines used in this study were MDA-MB-231 (ATCC® HTB-26™), MDA-MB-468 (ATCC® HTB-132™), MDA-MB-157 (ATCC® HTB-24™) and CAL-51. Those lines were chosen to represent the BRCA1/2 non-mutated TNBC transcriptomic subtypes, currently most in need of efficacious treatment due to lower sensibility of BRCA1 wild-type TNBC to the DNA-damaging chemotherapy (Masuda et al., Clin Cancer Res. 2013, p5533; Jiang et al., PLoS Med. 2016, pe1002193; Park et al. ESMO Open. 2018, pe000357). CAL-51 line represents the mesenchymal transcriptomic subtype whereas MDA-MB-157 and MDA-MB-231 represent the mesenchymal stem-like subtype (Lehmann et al. J Clin Invest. 2011, p2750). MDA-MB-468 was used as a model of aggressive, PTEN-negative TNBC, with hyperactivated EGFR signaling pathway due to EGFR amplification (Filmus et al., Biochem Biophys Res Commun. 1985, p898). MDA-MB-468 transcriptome classifies it into the basal-like 1 subtype (49). The MDA lines were purchased from the American Type Culture Collection (ATCC, Manassas, VA, USA). The CAL-51 was kindly provided by Dr Gerard Milano, from the Centre Antoine Lacassagne, Nice, France, where the line has been established (Gioanni et al., Br J Cancer 1990, p8). After initial expansion, the cell line stock vials were conserved, in liquid nitrogen, at the Biological Resource Center of Jean Perrin Comprehensive Cancer Center (biobank ID BB-0033-00075, Clermont-Ferrand, France). The MDA cell lines were cultured in the Leibovitz L-15 medium, whereas CAL-51 line was maintained in DMEM (both media from Invitrogen Life Technologies, Carlsbad, CA, USA). The media were supplemented with 10% heat-inactivated fetal bovine serum and […] gentamicin. CAL-51 line was kept at 37°C, in a humidified atmosphere with 5% CO2; the MDA lines were kept under the same conditions, however, without CO2, in a free gas exchange with atmospheric air. All cell lines were maintained in monolayer culture, in the sub-confluent status, with no more 30 passages of the cells thawed from the stock vial.
Homoharringtonine was supplied by LeukePharma Inc. (Houston, TX, USA) as water-soluble, crystalline tartaric acid salt. Initial stock solution of HHT-tartrate was prepared at 10 mM in sterile deionized water, aliquoted and kept at -80°C. For each experiment, a fresh HHT solution was prepared by dissolving the HHT stock in phosphate-buffered saline (PBS, GIBCO™, Invitrogen, Cergy-Pontoise, France).
Cell viability was assessed using the sulforhodamine B (SRB) assay (Sigma-Aldrich, St Louis, MO, USA) according to the method described by Vichai and Kirtikara (Nat Protoc. 2006, p1112). Cells were seeded in 96-well plates, at 5x10^3 or 1x10^3 cells/well (the MDA cell lines and CAL-51, respectively), left overnight to adhere and then treated with growing concentrations of HHT for 24h, 48h or 72h. After incubation with the drug, cells were washed twice with PBS and left for 72 h in the corresponding complete culture medium. Then the cells were fixed with trichloroacetic acid (final concentration 10%) at 4°C for 1 h, followed with plate washing with water five times, air drying and staining with 0.4% SRB dissolved in 1% acetic acid, at room temperature, for 30 min. The plates were subsequently washed four times with 1% acetic acid to remove unbound stain. To solubilize the protein-bound dye, 10 mM Tris base solution was added to each well. The cell viability, estimated through the present protein biomass, was determined by measuring optical density of the dye, using a spectrophotometer at wavelength of 540 nm (BMG Labtech, Ortenberg, Germany).
Preliminary screening using these tumor cell lines are gathered in table 1.

Molecule | pIC50 (K562 cell line) | pIC50 (HL-60 cell line) | pIC50 (MDA-MB-468)
OP5215 bexarotenoate [Example 29] | > 8.00 | > 7.70 | > 8.00
CC1=C(/C=C/C(C)=C/C=C/C(C)=C/C(=O)O)C(C)(C)CCC1.COC(=O)C[C@@]1(C(=O)O[C@@H]2C(OC)=C[C@]34CCCN3CCc3cc5c(cc3[C@H]24)OCO5)CCCC(C)(C)O1 (relative stereo) [Example 18, Anhydrohomoharringtonine all-trans-retinoate] | > 7.30 | > 7.00 | > 7.30
COC(=O)CC(O)(CCCC(C)(C)O)C(=O)O[C@@H]1C(OC)=C[C@]23CCCN2CCc2cc4c(cc2[C@H]13)OCO4.Cc1ccc(C2=CCC(C)(C)c3ccc(C#Cc4ccc(C(=O)O)cc4)cc32)cc1 (stereo partly drawn) [Example 16, Butanedioic acid, 2-hydroxy-2-(4-hydroxy-4-methylpentyl)-, 1-[(1S,3aR,14bS)-1,5,6,8,9,14b-hexahydro-2-methoxy-4H-cyclopenta[a][1,3]dioxolo[4,5-h]pyrrolo[2,1-b][3]benzazepin-1-yl]4-methyl ester, 4-[[5,6-dihydro-5,5-dimethyl-8-(4-methylphenyl)-2-naphthalenyl]ethynyl]benzoate] | > 7.30 | > 7.00 | 
OP5215 adarotenoate [Example 28] | > 8.00 | > 7.70 | > 8.00
CC1(C)CCC(C)(C)c2cc(NC(=O)c3ccc(C(=O)O)cc3)ccc21.COC(=O)CC(O)(CCCC(C)(C)O)C(=O)OC1C(OC)=CC23CCCN2CCc2cc4c(cc2C13)OCO4 (stereo not drawn) [Example 5, homoharringtonine tamibarotenoate] | > 7.70 | > 7.30 | > 7.70
COC(=O)CC(O)(CCC(C)(C)O)C(=O)OC1C(OC)=CC23CCCN2CCc2cc4c(cc2C13)OCO4.COc1cc(C)c(C=CC(C)=CC=CC(C)=CC(=O)O)c(C)c1C (stereo not drawn) [Example 17, harringtonine acitretinate] | > 7.30 | > 7.00 | 
CC(C=CC1=C(C)CCCC1(C)C)=CC=CC(C)=CC(=O)O.COC(=O)CC(O)(CCCC(C)(C)O)C(=O)OC1C(OC)=CC23CCCN2CCc2cc4c(cc2C13)OCO4 (stereo not drawn) [Example 3, homoharringtonine 13-cis-retinoate] | > 7.30 |  | 
COC(=O)CC(O)(CCCC(C)(C)O)C(=O)OC1C(OC)=CC23CCCN2CCc2cc4c(cc2C13)OCO4.O=C(O)C=Cc1ccc(-c2ccc(O)c(C34CC5CC(CC(C5)C3)C4)c2)cc1 (stereo not drawn) [Example 6, homoharringtonine "adarotenoate"] | > 7.30 | > 7.00 | 
CC1(C)CC=C(c2cnc3ccccc3c2)c2cc(C(=O)Nc3ccc(C(=O)O)cc3)ccc21.COC(=O)CC(O)(CCCC(C)(C)O)C(=O)O[C@@H]1C(OC)=C[C@]23CCCN2CCc2cc4c(cc2[C@H]13)OCO4 (stereo partly drawn) [Example 10, Butanedioic acid, 2-hydroxy-2-(4-hydroxy-4-methylpentyl)-, 1-[(1S,3aR,14bS)-1,5,6,8,9,14b-hexahydro-2-methoxy-4H-cyclopenta[c][1,3]dioxolo[4,5-h]pyrrolo[2,1-b][3]benzazepin-1-yl]4-methyl ester, 4-[[[5,6-Dihydro-5,5-dimethyl-8-(3-quinolinyl)-2-naphthalenyl]carbonyl]amino]benzoate] | > 7.30 | > 7.00 | > 7.30
CC(=Cc1ccc(C(=O)O)cc1)c1ccc2c(c1)C(C)(C)CCC2(C)C.COC(=O)CC(O)(CCCC(C)(C)O)C(=O)OC1C(OC)=CC23CCCN2CCc2cc4c(cc2C13)OCO4 (stereo not drawn) [Example 13, homoharringtonine arotinoate] | > 7.30 |  | 
OP5215 acitretinate [Example 25] | > 7.70 | > 7.30 | > 7.70
OP5215 all-trans-retinoate [Example 24] | > 7.30 | > 7.00 | 
CC(=Cc1ccc(C(=O)O)cc1)c1ccc2c(c1)C(C)(C)CCC2(C)C.COC(=O)CC(O)(CCC(C)(C)O)C(=O)OC1C(OC)=CC23CCCN2CCc2cc4c(cc2C13)OCO4 (stereo not drawn) [Example 14, harringtonine arotinoate] | > 7.00 |  | 
COC(=O)CC1(C(=O)OC2C(OC)=CC34CCCN3CCc3cc5c(cc3C24)OCO5)CCCC(C)(C)O1.COc1cc(C)c(C=CC(C)=CC=CC(C)=CC(=O)O)c(C)c1C (stereo not drawn) [Example 19, anhydrohomoharringtonine "acitretinoate"] | < 7.00 |  | < 7.00
CC(C=CC1=C(C)CCCC1(C)C)=CC=CC(C)=CC(=O)O.COC(=O)CC(O)(CCC(C)(C)O)C(=O)OC1C(OC)=CC23CCCN2CCc2cc4c(cc2C13)OCO4 (stereo not drawn) [Example 2, harringtonine all-trans-retinoate] | > 7.00 | < 7.00 | 
COC(=O)C[C@](O)(CCC(C)(C)O)C(=O)O[C@@H]1C(OC)=C[C@]23CCCN2CCc2cc4c(cc2[C@H]13)OCO4.COc1ccc(-c2ccc3cc(C(=O)O)ccc3c2)cc1C12CC3CC(CC(C3)C1)C2 [Example 9, harringtonine "adapalenoate"] | > 7.00 |  | 
COC(=O)CC(O)(CCCC(C)(C)O)C(=O)OC1C(OC)=CC23CCCN2CCc2cc4c(cc2C13)OCO4.COc1cc(C)c(C=CC(C)=CC=CC(C)=CC(=O)O)c(C)c1C (stereo not drawn) [Example 4, homoharringtonine "acitretinoate"] | > 7.30 | > 7.00 | 
